Results reported in PubChem BioAssay AID248 (DTP/NCI, 2004).
Where “and” joins values, the source holds several entries; their conditions need not be identical. Identical values can stand only once. Toxic doses and inconclusive results are not listed. Rule as the data show it: active = T/C of 150% or more; inactive = T/C below 125%.

System: L1210 leukemia ip in BDF1 mice, survival T/C
Test: NCI In Vivo Anticancer Drug Screen. Data for tumor model L1210 Leukemia (intraperitoneal) in B6D2F1 (BDF1) mice
Conditions: endpoint: mean survival time, higher = longer survival
How it was run: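 Tumor cells were implanted, animals were treated, and survival was followed. The result divides the treated measurement by the vehicle-control measurement.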

[1] = dose: 100.0 mg/kg/injection, schedule: Q01DX001 (ip), vehicle: carboxymethylcellulose (CMC)
[2] = dose: 200.0 mg/kg/injection, schedule: Q01DX001 (ip), vehicle: saline
[3] = dose: 400.0 mg/kg/injection, schedule: Q01DX001 (ip), vehicle: carboxymethylcellulose (CMC)
[4] = dose: 100.0 mg/kg/injection, schedule: Q01DX009 (ip), vehicle: saline
[5] = dose: 100.0 mg/kg/injection, schedule: Q04DX003 (ip), vehicle: saline
[6] = dose: 200.0 mg/kg/injection, schedule: Q01DX009 (ip), vehicle: saline
[7] = dose: 200.0 mg/kg/injection, schedule: Q04DX003 (ip), vehicle: saline
[8] = dose: 400.0 mg/kg/injection, schedule: Q01DX009 (ip), vehicle: saline
[9] = dose: 400.0 mg/kg/injection, schedule: Q04DX003 (ip), vehicle: saline
[10] = dose: 100.0 mg/kg/injection, schedule: Q04DX003 (ip), vehicle: saline with Tween-80
[11] = dose: 200.0 mg/kg/injection, schedule: Q04DX003 (ip), vehicle: saline with Tween-80
[12] = dose: 400.0 mg/kg/injection, schedule: Q04DX003 (ip), vehicle: saline with Tween-80
[13] = dose: 100.0 mg/kg/injection, schedule: Q01DX009 (ip), vehicle: saline with Tween-80
[14] = dose: 200.0 mg/kg/injection, schedule: Q01DX009 (ip), vehicle: saline with Tween-80
[15] = dose: 200.0 mg/kg/injection, schedule: Q01DX001 (ip), vehicle: carboxymethylcellulose (CMC)
[16] = dose: 50.0 mg/kg/injection, schedule: Q01DX001 (ip), vehicle: carboxymethylcellulose (CMC)
[17] = dose: 100.0 mg/kg/injection, schedule: Q01DX001 (ip), vehicle: saline
[18] = dose: 100.0 mg/kg/injection, schedule: Q01DX009 (ip), vehicle: Klucel (hydroxypropylcellulose) (HPC)
[19] = dose: 200.0 mg/kg/injection, schedule: Q01DX009 (ip), vehicle: Klucel (hydroxypropylcellulose) (HPC)
[20] = dose: 400.0 mg/kg/injection, schedule: Q01DX009 (ip), vehicle: Klucel (hydroxypropylcellulose) (HPC)
[21] = dose: 400.0 mg/kg/injection, schedule: Q01DX009 (ip), vehicle: saline with Tween-80

Measured: T/C

Cc1cccc(NC(=S)Nc2ccc(-c3ccc(NC(=S)Nc4cccc(C)c4)cc3)cc2)c1
inactive: dose: 100.0 mg/kg/injection, schedule: Q01DX009 (ip), vehicle: other 104 % of control | dose: 200.0 mg/kg/injection, schedule: Q01DX009 (ip), vehicle: other 106 % of control | dose: 400.0 mg/kg/injection, schedule: Q01DX009 (ip), vehicle: other 96 % of control

Nc1nc(N)c(N=Cc2ccc(N(CCCl)CCCl)cc2)c(N)n1
inactive: dose: 50.0 mg/kg/injection, schedule: Q01DX001 (ip), vehicle: saline 100 % of control | [1] 103 % of control | [2] 103 % of control | [3] 100 % of control

COC(=O)c1cc(N2CC2)nc(SC)n1
inactive: dose: 6.0 mg/kg/injection, schedule: Q01DX Z (ip), vehicle: methylcellulose (MC) 96 % of control | dose: 12.0 mg/kg/injection, schedule: Q01DX Z (ip), vehicle: methylcellulose (MC) 96 % of control

Oc1cc(Cl)c(Cl)cc1Cl.[Cu+2]
inactive: dose: 12.5 mg/kg/injection, schedule: Q04DX003 (ip), vehicle: gum acacia 92 % of control | dose: 25.0 mg/kg/injection, schedule: Q04DX003 (ip), vehicle: gum acacia 93 % of control

COc1ccc(CN(CCO)C(C)=O)cc1
inactive: [4] 100 % of control | [5] 112 % of control | [6] 105 % of control | [7] 107 % of control | [8] 103 % of control | [9] 119 % of control

NC(CSC(c1ccccc1)(c1ccccc1)c1ccc(C(=O)O)cc1)C(=O)O.[Ga] (configuration not stated)
inactive: dose: 100.0 mg/kg/injection, schedule: Q01DX001 (ip), vehicle: acetone 96 % of control | [4] 103 % of control | [5] 106 % of control | dose: 200.0 mg/kg/injection, schedule: Q01DX001 (ip), vehicle: acetone 98 % of control | [6] 90 % of control | [7] 97 % of control | dose: 400.0 mg/kg/injection, schedule: Q01DX001 (ip), vehicle: acetone 112 % of control | [8] 98 % of control | [9] 100 % of control

Clc1ccc(/C=N\N2CCCCCC2)cc1
inactive: dose: 100.0 mg/kg/injection, schedule: Q01DX001 (ip), vehicle: Klucel (hydroxypropylcellulose) (HPC) 105 % of control | dose: 200.0 mg/kg/injection, schedule: Q01DX001 (ip), vehicle: Klucel (hydroxypropylcellulose) (HPC) 100 % of control | dose: 400.0 mg/kg/injection, schedule: Q01DX001 (ip), vehicle: Klucel (hydroxypropylcellulose) (HPC) 98 % of control

O=[N+]([O-])c1ccc(N/N=C(\Cc2ccccc2)c2ccccc2)c([N+](=O)[O-])c1
inactive: [10] 91 % of control | [11] 91 % of control | [12] 87 % of control

Cc1c(-c2ccccc2)ccnc1C#N
inactive: dose: 50.0 mg/kg/injection, schedule: Q01DX009 (ip), vehicle: saline with Tween-80 97 % of control | [13] 102 % of control | [14] 97 % of control

OCC1CCC(n2cnc3c(=S)nc[nH]c32)C1 (configuration not stated)
inactive: [1] 102 % of control | [15] 102 % of control | [3] 96 % of control

COC(=O)c1cc(C)cc(NS(=O)(=O)c2ccc(C)cc2)c1C
inactive: [16] 89 % of control | [1] 86 % of control | [15] 94 % of control | [3] 89 % of control

Cc1cc(N(C)C)c(C(C)C)cc1O (tested in a mixture with another compound)
inactive: dose: 3.2 micrograms/kg/injection, schedule: Q01DX009 (ip), vehicle: saline 95 % of control | dose: 6.3 micrograms/kg/injection, schedule: Q01DX009 (ip), vehicle: saline 90 % of control | dose: 12.5 micrograms/kg/injection, schedule: Q01DX009 (ip), vehicle: saline 105 % of control

COc1ccc(N(C)CC(O)CN)cc1 (configuration not stated)
inactive: [17] 108 % of control | [2] 104 % of control

COc1ccc(/C=N/Nc2c([N+](=O)[O-])cc(C)cc2[N+](=O)[O-])cc1
inactive: [18] 102 % of control | [19] 100 % of control | [20] 100 % of control

c1ccc(COC2CN3CCC2CC3)cc1 (configuration not stated)
inactive: dose: 25.0 mg/kg/injection, schedule: Q04DX003 (ip), vehicle: saline with Tween-80 91 % of control | dose: 50.0 mg/kg/injection, schedule: Q04DX003 (ip), vehicle: saline with Tween-80 95 % of control | [10] 90 % of control and 91 % of control

O=C(Nc1ccccc1C(=O)N/N=C/c1cccc(O)c1)c1ccccc1
inactive: [18] 103 % of control | [19] 89 % of control | [20] 97 % of control

CC(C)C1CCC2=C(CCC3C(C)(C(=O)O)CCCC23C)C1 (configuration not stated)
inactive: [13] 89 % of control | [14] 91 % of control | [21] 89 % of control

CC(C)Oc1ccc2c(c1)Sc1ccc(Cl)cc1N2
inactive: [13] 102 % of control | [14] 94 % of control | [21] 92 % of control

CC(=O)Nc1ccc(S(N)(=O)=O)cc1
inactive: [16] 95 % of control | [1] 101 % of control | [18] 103 % of control | [15] 95 % of control | [3] 97 % of control

CC(=O)OCC(C)([N+](=O)[O-])[N+](=O)[O-]
inactive: [13] 93 % of control | [10] 95 % of control | [14] 90 % of control | [11] 101 % of control | [21] 91 % of control | [12] 103 % of control

Cc1cc(I)c(C)s1
inactive: [10] 96 % of control | [11] 96 % of control | [12] 98 % of control

CC1=CCCCC1Oc1ccccc1 (configuration not stated)
inactive: [10] 104 % of control | [11] 96 % of control | [12] 109 % of control

N=C(N)SCc1cccc([N+](=O)[O-])c1
inactive: dose: 25.0 mg/kg/injection, schedule: Q04DX002 (ip), vehicle: saline with Tween-80 102 % of control | dose: 50.0 mg/kg/injection, schedule: Q04DX002 (ip), vehicle: saline with Tween-80 102 % of control

CCCCCCCCCCCCCCCCCC(=O)N/N=C/C(=C\c1ccccc1)CCCCCC
inactive: [18] 90 % of control | [19] 98 % of control | [20] 93 % of control

O=C(OC(=O)c1cccc2ccccc12)c1cccc2ccccc12
inactive: [17] 94 % of control | [2] 102 % of control | dose: 400.0 mg/kg/injection, schedule: Q01DX001 (ip), vehicle: saline 94 % of control
